Assay results taken from patent publication US20080176862A1, “New Compounds 617” (ASTRAZENECA AB, priority 2006, published 2008).
Where two headings read alike, the source gives them in different places.

Biological target: T1, human β-Secretase (soluble part, AA1-AA460; sBACE-Fc) (Homo sapiens, UniProt P56817)
T1 construct: The soluble part of the human β-Secretase (AA1-AA460) was cloned into the ASP2-Fc10-1-IRES-GFP-neoK mammalian expression vector; made in house
Assay: TR-FRET assay
Format: biochemical
Settings: substrate (Europium)CEVNLDAEFK(Qsy7) 100 nM, pH 4.5, 15 min at RT
Procedure: The enzyme used in the IGEN Cleavage-, Fluorescent-, TR-FRET- and BiaCore assays is described as follows:
The soluble part of the human β-Secretase (AA1-AA460) was cloned into the ASP2-Fc10-1-IRES-GFP-neoK mammalian expression vector. The gene was fused to the Fc domain of IgG1 (affinity tag) and stably cloned into HEK 293 cells. Purified sBACE-Fc is stored in Tris buffer, pH 9.2 and has a purity of 95%.
Enzyme was diluted to 6 μg/mL and the substrate (Europium)[…](Qsy7) to 200 nM in reaction buffer (NaAcetate, chaps, triton x-100, EDTA pH 4.5). Compounds were diluted to the desired concentration in dimethyl sulfoxide (final dimethyl sulfoxide concentration in assay is 5%). […] Enzyme (9 μL) and 1 μL of compound in dimethyl sulfoxide was added to the plate, mixed and pre-incubated for 10 min. Substrate (10 μL) was added and the reaction proceeded in the dark for 15 min at RT. The reaction was stopped with the addition of 7 μL NaAcetate, pH 9. The fluorescence of the product was measured on a Victor II plate reader with an excitation wavelength of 340 nm and an emission wavelength of 615 nm. […] The dimethyl sulfoxide control defined the 100% activity level and 0% activity was defined by exclusion of the enzyme (using reaction buffer instead).

[1] = read-out: IC50 (nM) in TR-FRET assay

T1 sequence (P56817 22-460): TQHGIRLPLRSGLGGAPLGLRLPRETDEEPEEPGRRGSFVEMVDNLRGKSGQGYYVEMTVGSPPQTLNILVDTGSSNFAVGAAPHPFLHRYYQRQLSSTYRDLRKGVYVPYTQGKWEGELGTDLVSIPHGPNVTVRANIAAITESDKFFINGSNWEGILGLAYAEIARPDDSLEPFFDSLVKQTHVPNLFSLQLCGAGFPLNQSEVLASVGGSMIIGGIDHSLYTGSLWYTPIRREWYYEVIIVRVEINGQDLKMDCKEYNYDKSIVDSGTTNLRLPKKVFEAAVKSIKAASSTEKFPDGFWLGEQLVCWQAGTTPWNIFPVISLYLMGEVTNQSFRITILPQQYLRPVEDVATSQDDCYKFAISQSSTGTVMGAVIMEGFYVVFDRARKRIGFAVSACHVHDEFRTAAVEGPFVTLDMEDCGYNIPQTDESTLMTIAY

| IC50 [1] [nM] | Structure (SMILES) | further results |
| --- | --- | --- |
| 207 | CN1C(=O)C(c2cccc(OS(C)(=O)=O)c2)(c2ccc(F)c(-c3cc(Cl)cc(Cl)c3)c2)N=C1N (stereo not shown) [Example 89, 3-[2-Amino-4-(3′,5′-dichloro-6-fluorobiphenyl-3-yl)-1-methyl-5-oxo-4,5-dihydro-1H-imidazol-4-yl]phenyl methanesulfonate] |  |
| 228 | CN1C(=O)C(c2cccc(OS(C)(=O)=O)c2)(c2ccc(F)c(-c3cccc(Cl)c3)c2)N=C1N (stereo not shown) [Example 91, 3-[2-Amino-4-(3′-chloro-6-fluorobiphenyl-3-yl)-1-methyl-5-oxo-4,5-dihydro-1H-imidazol-4-yl]phenyl methanesulfonate] |  |
| 179 | COc1cc(Cl)cc(-c2cc(C3(c4cccc(OS(C)(=O)=O)c4)N=C(N)N(C)C3=O)ccc2F)c1 (stereo not shown) [Example 92, 3-[2-Amino-4-(3′-chloro-6-fluoro-5′-methoxybiphenyl-3-yl)-1-methyl-5-oxo-4,5-dihydro-1H-imidazol-4-yl]phenyl methanesulfonate] |  |
| 146 | COc1cccc(-c2cc(C3(c4cccc(OS(C)(=O)=O)c4)N=C(N)N(C)C3=O)ccc2F)c1 (stereo not shown) [Example 93, 3-[2-Amino-4-(6-fluoro-3′-methoxybiphenyl-3-yl)-1-methyl-5-oxo-4,5-dihydro-1H-imidazol-4-yl]phenyl methanesulfonate] |  |
| 352 | CCCS(=O)(=O)Oc1cccc(C2(c3ccc(F)c(-c4cc(Cl)cnc4F)c3)N=C(N)N(C)C2=O)c1 (stereo not shown) [Example 95, 3-{2-Amino-4-[3-(5-chloro-2-fluoropyridin-3-yl)-4-fluorophenyl]-1-methyl-5-oxo-4,5-dihydro-1H-imidazol-4-yl}phenyl propane-1-sulfonate] |  |
| 242 | CCCS(=O)(=O)Oc1cccc(C2(c3ccc(F)c(-c4cccnc4F)c3)N=C(N)N(C)C2=O)c1 (stereo not shown) [Example 96, 3-{2-Amino-4-[4-fluoro-3-(2-fluoropyridin-3-yl)phenyl]-1-methyl-5-oxo-4,5-dihydro-1H-imidazol-4-yl}phenyl propane-1-sulfonate] |  |
| 236 | CCCS(=O)(=O)Oc1cccc(C2(c3ccc(F)c(-c4cccnc4)c3)N=C(N)N(C)C2=O)c1 (stereo not shown) [Example 97, 3-[2-Amino-4-(4-fluoro-3-pyridin-3-ylphenyl)-1-methyl-5-oxo-4,5-dihydro-1H-imidazol-4-yl]phenylpropane-1-sulfonate] |  |
| 239 | CCCS(=O)(=O)Oc1cccc(C2(c3ccc(F)c(-c4cccc(Cl)c4)c3)N=C(N)N(C)C2=O)c1 (stereo not shown) [Example 98, 3-[2-Amino-4-(3′-chloro-6-fluorobiphenyl-3-yl)-1-methyl-5-oxo-4,5-dihydro-1H-imidazol-4-yl]phenyl propane-1-sulfonate] |  |
| 330 | CCCS(=O)(=O)Oc1cccc(C2(c3ccc(F)c(-c4cc(Cl)cc(OC)c4)c3)N=C(N)N(C)C2=O)c1 (stereo not shown) [Example 99, 3-[2-Amino-4-(3′-chloro-6-fluoro-5′-methoxybiphenyl-3-yl)-1-methyl-5-oxo-4,5-dihydro-1H-imidazol-4-yl]phenyl propane-1-sulfonate] |  |
| 395 | CCCS(=O)(=O)Oc1cccc(C2(c3ccc(F)c(-c4cc(Cl)cc(Cl)c4)c3)N=C(N)N(C)C2=O)c1 (stereo not shown) [Example 100, 3-[2-Amino-4-(3′,5′-dichloro-6-fluorobiphenyl-3-yl)-1-methyl-5-oxo-4,5-dihydro-1H-imidazol-4-yl]phenyl propane-1-sulfonate] |  |
| 180 | CCCS(=O)(=O)Oc1cccc(C2(c3ccc(F)c(-c4cccc(OC)c4)c3)N=C(N)N(C)C2=O)c1 (stereo not shown) [Example 101, 3-[2-Amino-4-(6-fluoro-3′-methoxybiphenyl-3-yl)-1-methyl-5-oxo-4,5-dihydro-1H-imidazol-4-yl]phenyl propane-1-sulfonate] |  |
| 321 | CCCS(=O)(=O)Oc1cccc(C2(c3ccc(F)c(-c4cncnc4)c3)N=C(N)N(C)C2=O)c1 (stereo not shown) [Example 102, 3-[2-Amino-4-(4-fluoro-3-pyrimidin-5-ylphenyl)-1-methyl-5-oxo-4,5-dihydro-1H-imidazol-4-yl]phenyl propane-1-sulfonate] |  |
| 343 | CC(C)S(=O)(=O)Oc1cccc(C2(c3ccc(F)c(-c4cccnc4)c3)N=C(N)N(C)C2=O)c1 (stereo not shown) [Example 105, 3-[2-Amino-4-(4-fluoro-3-pyridin-3-ylphenyl)-1-methyl-5-oxo-4,5-dihydro-1H-imidazol-4-yl]phenylpropane-2-sulfonate] |  |
| 363 | CC(C)S(=O)(=O)Oc1cccc(C2(c3ccc(F)c(-c4cccc(Cl)c4)c3)N=C(N)N(C)C2=O)c1 (stereo not shown) [Example 106, 3-[2-Amino-4-(3′-chloro-6-fluorobiphenyl-3-yl)-1-methyl-5-oxo-4,5-dihydro-1H-imidazol-4-yl]phenyl propane-2-sulfonate] |  |
| 186 | COc1cccc(-c2cc(C3(c4cccc(OS(=O)(=O)C(C)C)c4)N=C(N)N(C)C3=O)ccc2F)c1 (stereo not shown) [Example 108, 3-[2-Amino-4-(6-fluoro-3′-methoxybiphenyl-3-yl)-1-methyl-5-oxo-4,5-dihydro-1H-imidazol-4-yl]phenyl propane-2-sulfonate] |  |
| 263 | CC(C)S(=O)(=O)Oc1cccc(C2(c3ccc(F)c(-c4cc(Cl)cc(Cl)c4)c3)N=C(N)N(C)C2=O)c1 (stereo not shown) [Example 109, 3-[2-Amino-4-(3′,5′-dichloro-6-fluorobiphenyl-3-yl)-1-methyl-5-oxo-4,5-dihydro-1H-imidazol-4-yl]phenyl propane-2-sulfonate] |  |

More lines, now with the values behind:

| Structure (SMILES) | IC50 [1] [nM] | further results |
| --- | --- | --- |
| CN1C(=O)C(c2ccc(OS(C)(=O)=O)cc2)(c2ccc(F)c(CCC3CC3)c2)N=C1N (stereo not shown) [Example 79, 4-{2-Amino-4-[3-(2-cyclopropylethyl)-4-fluorophenyl]-1-methyl-5-oxo-4,5-dihydro-1H-imidazol-4-yl}phenyl methanesulfonate] | 552 |  |
| COc1cc(OS(C)(=O)=O)cc(-c2cc(C3(c4ccccc4)N=C(N)N(C)C3=O)ccc2F)c1 (stereo not shown) [Example 84, 5′-(2-Amino-1-methyl-5-oxo-4-phenyl-4,5-dihydro-1H-imidazol-4-yl)-2′-fluoro-5-methoxybiphenyl-3-yl methanesulfonate] | 159 | IC50 (nM) in TR-FRET assay: inactive |
| CN1C(=O)C(c2cccc(OS(C)(=O)=O)c2)(c2ccc(F)c(-c3cc(Cl)cnc3F)c2)N=C1N (stereo not shown) [Example 86, 3-{2-Amino-4-[3-(5-chloro-2-fluoropyridin-3-yl)-4-fluorophenyl]-1-methyl-5-oxo-4,5-dihydro-1H-imidazol-4-yl}phenyl methanesulfonate] | 292 |  |
| CN1C(=O)C(c2cccc(OS(C)(=O)=O)c2)(c2ccc(F)c(-c3cncc(F)c3)c2)N=C1N (stereo not shown) [Example 87, 3-{2-Amino-4-[4-fluoro-3-(5-fluoropyridin-3-yl)phenyl]-1-methyl-5-oxo-4,5-dihydro-1H-imidazol-4-yl}phenylmethanesulfonate] | 494 |  |
| CN1C(=O)C(c2cccc(OS(C)(=O)=O)c2)(c2ccc(F)c(-c3cccnc3F)c2)N=C1N (stereo not shown) [Example 88, 3-{2-Amino-4-[4-fluoro-3-(2-fluoropyridin-3-yl)phenyl]-1-methyl-5-oxo-4,5-dihydro-1H-imidazol-4-yl}phenylmethanesulfonate] | 234 |  |
| CN1C(=O)C(c2cccc(OS(C)(=O)=O)c2)(c2ccc(F)c(-c3cccnc3)c2)N=C1N (stereo not shown) [Example 90, 3-[2-Amino-4-(4-fluoro-3-pyridin-3-ylphenyl)-1-methyl-5-oxo-4,5-dihydro-1H-imidazol-4-yl]phenylmethanesulfonate] | 385 |  |
| CN1C(=O)C(c2cccc(OS(C)(=O)=O)c2)(c2ccc(F)c(-c3cncnc3)c2)N=C1N (stereo not shown) [Example 94, 3-[2-Amino-4-(4-fluoro-3-pyrimidin-5-ylphenyl)-1-methyl-5-oxo-4,5-dihydro-1H-imidazol-4-yl]phenyl methanesulfonate] | 472 |  |
| CC(C)S(=O)(=O)Oc1cccc(C2(c3ccc(F)c(-c4cc(Cl)cnc4F)c3)N=C(N)N(C)C2=O)c1 (stereo not shown) [Example 103, 3-{2-Amino-4-[3-(5-chloro-2-fluoropyridin-3-yl)-4-fluorophenyl]-1-methyl-5-oxo-4,5-dihydro-1H-imidazol-4-yl}phenyl propane-2-sulfonate] | 227 |  |
| CC(C)S(=O)(=O)Oc1cccc(C2(c3ccc(F)c(-c4cccnc4F)c3)N=C(N)N(C)C2=O)c1 (stereo not shown) [Example 104, 3-{2-Amino-4-[4-fluoro-3-(2-fluoropyridin-3-yl)phenyl]-1-methyl-5-oxo-4,5-dihydro-1H-imidazol-4-yl}phenyl propane-2-sulfonate] | 186 |  |
| COc1cc(Cl)cc(-c2cc(C3(c4cccc(OS(=O)(=O)C(C)C)c4)N=C(N)N(C)C3=O)ccc2F)c1 (stereo not shown) [Example 107, 3-[2-Amino-4-(3′-chloro-6-fluoro-5′-methoxybiphenyl-3-yl)-1-methyl-5-oxo-4,5-dihydro-1H-imidazol-4-yl]phenyl propane-2-sulfonate] |  | IC50 (IC50 (nM) in TR-FRET assay): 311 nM |
| CN1C(=O)C(c2cccc(OS(=O)(=O)N(C)C)c2)(c2ccc(F)c(-c3cccnc3F)c2)N=C1N (stereo not shown) [Example 110, 3-{2-Amino-4-[4-fluoro-3-(2-fluoropyridin-3-yl)phenyl]-1-methyl-5-oxo-4,5-dihydro-1H-imidazol-4-yl}phenyldimethylsulfamate] | 114 |  |
